Measured values as given in PubChem BioAssay AID330 (DTP/NCI, 2004).
Several values for one entry are separate records, joined by “and”; a condition that tells them apart may be missing. Identical values can stand only once. Inconclusive results and toxic doses are left out. Rule for the calls: active = survival T/C of 150% or more; inactive = T/C below 125% in these data.

Test system: P388 leukemia ip, CD2F1 mice, survival T/C
Test: NCI In Vivo Anticancer Drug Screen. Data for tumor model P388 Leukemia (intraperitoneal) in CD2F1 (CDF1) mice
Conditions: endpoint: median survival time, higher = longer survival
Method in brief: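 Mice carrying the transplanted tumor received test compound or vehicle. Survival was recorded in each group, and the value is the treated-group measurement divided by that of the vehicle-treated control group.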

[1] = dose: 60.0 mg/kg/injection, schedule: Q01DX005 (ip), vehicle: saline with Tween-80
[2] = dose: 120.0 mg/kg/injection, schedule: Q01DX005 (ip), vehicle: saline with Tween-80
[3] = dose: 240.0 mg/kg/injection, schedule: Q01DX005 (ip), vehicle: saline with Tween-80
[4] = dose: 50.0 mg/kg/injection, schedule: Q01DX009 (ip), vehicle: saline
[5] = dose: 100.0 mg/kg/injection, schedule: Q01DX009 (ip), vehicle: saline
[6] = dose: 200.0 mg/kg/injection, schedule: Q01DX009 (ip), vehicle: saline
[7] = dose: 12.5 mg/kg/injection, schedule: Q01DX009 (ip), vehicle: Klucel (hydroxypropylcellulose) (HPC)
[8] = dose: 50.0 mg/kg/injection, schedule: Q01DX009 (ip), vehicle: Klucel (hydroxypropylcellulose) (HPC)
[9] = dose: 100.0 mg/kg/injection, schedule: Q01DX009 (ip), vehicle: Klucel (hydroxypropylcellulose) (HPC)
[10] = dose: 12.5 mg/kg/injection, schedule: Q01DX009 (ip), vehicle: saline with Tween-80
[11] = dose: 200.0 mg/kg/injection, schedule: Q01DX009 (ip), vehicle: Klucel (hydroxypropylcellulose) (HPC)
[12] = dose: 50.0 mg/kg/injection, schedule: Q01DX005 (ip), vehicle: Klucel (hydroxypropylcellulose) (HPC)
[13] = dose: 100.0 mg/kg/injection, schedule: Q01DX005 (ip), vehicle: Klucel (hydroxypropylcellulose) (HPC)
[14] = dose: 200.0 mg/kg/injection, schedule: Q01DX005 (ip), vehicle: Klucel (hydroxypropylcellulose) (HPC)
[15] = dose: 50.0 mg/kg/injection, schedule: Q01DX009 (ip), vehicle: saline with Tween-80

Measured: T/C

O=c1oc2ccccc2cc1-n1nnc2cc([N+](=O)[O-])ccc21
inactive: [1] 91 % of control | [2] 89 % of control | [3] 99 % of control

C1=NCCNc2nc3ccccc3cc2C=NCCNc2nc3ccccc3cc21
inactive: dose: 50.0 mg/kg/injection, schedule: Q04DX002 (ip), vehicle: saline 100 % of control | dose: 100.0 mg/kg/injection, schedule: Q04DX002 (ip), vehicle: saline 99 % of control | dose: 200.0 mg/kg/injection, schedule: Q04DX002 (ip), vehicle: saline 99 % of control

COc1cc(OC)c2cc(C(=O)c3cccc4ccccc34)c(=O)oc2c1
inactive: [1] 102 % of control | [2] 114 % of control | [3] 91 % of control

COc1cc(C)c(S(C)=O)cc1OC (stereo unspecified)
inactive: [4] 98 % of control | [5] 90 % of control | [6] 98 % of control

Cc1c2c(cc3c1[nH]c1ccccc13)C(c1ccc(Cl)cc1)=NCC2
inactive: [7] 99 % of control | dose: 25.0 mg/kg/injection, schedule: Q01DX009 (ip), vehicle: Klucel (hydroxypropylcellulose) (HPC) 101 % of control | [8] 96 % of control | [9] 96 % of control

Cc1cc2ccccc2c[n+]1C
inactive: dose: 1.56 mg/kg/injection, schedule: Q01DX009 (ip), vehicle: saline with Tween-80 105 % of control | dose: 3.12 mg/kg/injection, schedule: Q01DX009 (ip), vehicle: saline with Tween-80 102 % of control | dose: 6.25 mg/kg/injection, schedule: Q01DX009 (ip), vehicle: saline with Tween-80 96 % of control | [10] 105 % of control | dose: 12.5 mg/kg/injection, schedule: Q04DX003 (ip), vehicle: saline 100 % of control | dose: 25.0 mg/kg/injection, schedule: Q04DX003 (ip), vehicle: saline 100 % of control | dose: 50.0 mg/kg/injection, schedule: Q04DX003 (ip), vehicle: saline 100 % of control

C1=CCC23CCCCC2(C1)CN(/N=N/N1CC24CC=CCC2(CCCC4)C1)C3 (stereo unspecified)
inactive: dose: 6.25 mg/kg/injection, schedule: Q01DX009 (ip), vehicle: Klucel (hydroxypropylcellulose) (HPC) 87 % of control | [7] 86 % of control

Cc1cc(C)c(C(CC(=O)O)C(CC(=O)O)c2c(C)cc(C)cc2C)c(C)c1 (stereo unspecified)
inactive: dose: 60.0 mg/kg/injection, schedule: Q01DX005 (ip), vehicle: Klucel (hydroxypropylcellulose) (HPC) 90 % of control

O=C(NC(=O)c1ccccc1F)Nc1ccc(C(F)(F)F)cc1
inactive: [8] 102 % of control | [9] 101 % of control | [11] 99 % of control

CC(=O)OCCOCn1cc(C)[n+]([O-])nc1=O
inactive: [1] 100 % of control | [2] 94 % of control | [3] 95 % of control

COC(=O)c1nc(N)nc(C(=O)OC)c1C(=O)c1c(C)[nH]c2ccccc12
inactive: [1] 114 % of control | [2] 91 % of control

N#CCCCCCCCCCCC(=O)O
inactive: [5] 93 % of control | [6] 91 % of control | dose: 400.0 mg/kg/injection, schedule: Q01DX009 (ip), vehicle: saline 94 % of control

CCOP(=O)(CC=O)OCC
inactive: dose: 60.0 mg/kg/injection, schedule: Q01DX005 (ip), vehicle: saline 95 % of control | dose: 120.0 mg/kg/injection, schedule: Q01DX005 (ip), vehicle: saline 100 % of control | dose: 240.0 mg/kg/injection, schedule: Q01DX005 (ip), vehicle: saline 101 % of control

Cc1cc(=O)n2c([nH]c3ccccc32)c1N=Nc1ccccc1
inactive: [12] 93 % of control | [13] 92 % of control | [14] 100 % of control

CSc1cccnc1SC
inactive: [4] 98 % of control | [5] 98 % of control | [6] 92 % of control

CC(SC(=O)c1ccccc1)(SC(=O)c1ccccc1)c1ccccc1
inactive: [8] 94 % of control | [9] 95 % of control | [11] 93 % of control

O=C1/C(=C/c2cccc(O)c2O)SC(=S)N1CCCN1CCOCC1
inactive: [15] 98 % of control | dose: 100.0 mg/kg/injection, schedule: Q01DX009 (ip), vehicle: saline with Tween-80 107 % of control | dose: 200.0 mg/kg/injection, schedule: Q01DX009 (ip), vehicle: saline with Tween-80 92 % of control

NC(=S)SCCC(=O)N1CCCC1
inactive: dose: 25.0 mg/kg/injection, schedule: Q01DX005 (ip), vehicle: Klucel (hydroxypropylcellulose) (HPC) 103 % of control | [12] 97 % of control | [13] 99 % of control | [14] 101 % of control

O=c1[nH]cnc2c1nnn2C1OC(CO)C(O)C1O (stereo unspecified)
inactive: dose: 25.0 mg/kg/injection, schedule: Q01DX005 (ip), vehicle: saline 102 % of control and 105 % of control | dose: 50.0 mg/kg/injection, schedule: Q01DX005 (ip), vehicle: saline 107 % of control and 111 % of control | dose: 100.0 mg/kg/injection, schedule: Q01DX005 (ip), vehicle: saline 114 % of control and 118 % of control | dose: 200.0 mg/kg/injection, schedule: Q01DX005 (ip), vehicle: saline 111 % of control and 116 % of control | dose: 400.0 mg/kg/injection, schedule: Q01DX005 (ip), vehicle: saline 100 % of control

Cc1ccccc1C(=O)Nc1ccccc1-c1ccccc1
inactive: [10] 94 % of control | dose: 25.0 mg/kg/injection, schedule: Q01DX009 (ip), vehicle: saline with Tween-80 100 % of control | [15] 106 % of control | [4] 95 % of control | [6] 93 % of control
